Experimental data: patent US20250074890A1, “CYANOPYRIDINE AND CYANOPYRIMIDINE BCL6 DEGRADERS” (DANA-FARBER CANCER INSTITUTE, INC., priority 2021, published 2025)

Experiments:
BCL6 = target: T1, BCL6 (Homo sapiens, UniProt P41182); test: HiBiT cellular degradation assay in Su-DHL-4 cells; assay type: cell-based; details: concentration to reach 50% degradation of endogenous SmBiT-tagged BCL6, 24 hours of compound treatment
T1 construct: Endogenous BCL6 was tagged with the 11-amino acid SmBiT through CRISPR/Cas9 gene editing; endogenous in cells; host or cells: Su-DHL-4 (CRISPR/Cas9 knock-in, single cell clone)
Protocol: DC50 (concentration to reach 50% degradation) values were determined from a cellular degradation assay (HiBiT, Promega™) in Su-DHL-4 cells (Table 1). Endogenous BCL6 was tagged with the 11-amino acid SmBiT through CRISPR/Cas9 gene editing and single cell clone selection. After 24 hours of compound treatment, cells were lysed and incubated with LgBiT protein to reconstitute intact nanoluciferase. Substrate was then added and relative luciferase units were measured. Degradation levels for each treatment were taken as a percentage compared to the control, 100% DMSO (Prism).

Su-DHL-4 cells = test: CellTiter-Glo cell proliferation, BCL6 degrader with EZH2 inhibitors; assay type: cell-based
Protocol: Enhancer of zeste homolog 2 (EZH2) is a member of the polycomb repressive complex 2 (PRC2) that methylates histone 3 lysine 27, a mark that is associated with gene repression.
To ensure HiBiT signal decrease was due to BCL6 degradation and not from dying cells, CellTiter-Glo® (CTG, Promega™) was performed on the same number of cells that were treated for 24 hours with BCL6 degraders. To study the anti-proliferative effects of BCL6 degraders and its synergistic effect with EZH2 inhibitors, Su-DHL-4 and other DLBCL cells were treated with the compounds at DC99, DC75, DC50, or 1 μM followed by 5 days of culture, at which point CTG values and/or Caspase3/7 activities were measured as percent DMSO treated.

In the case of CNC(=O)COc1cc2cc(Nc3ncc(C#N)c(N4C[C@@H](C)C(F)(F)[C@@H](C)C4)n3)ccc2n(C)c1=O [Compound 1, 2-((6-((5-cyano-4-((3S,5R)-4,4-difluoro-3,5-dimethylpiperidin-1-yl)pyrimidin-2-yl)amino)-1-methyl-2-oxo-1,2-dihydroquinolin-3-yl)oxy)-N-methylacetamide], the DC50 (BCL6) is reported as 6 nM, the “excess over Bliss (eob) score” value (Su-DHL-4 cells; compound 1 (50 nM to 2 nM) added 48 hours after Tazemetostat or Lirametostat (10 μM to 5 nM), read five days later, over most of the concentration range) is reported as > 1 and the “average synergy score (SynergyFinder)” value (Su-DHL-4 cells; compound 1 with Tazemetostat or Lirametostat, Su-DHL-4 cells, over most of the concentration range) is reported as “over 10”.

For COc1cc(C)[nH]c(=O)c1CNC(=O)c1c(C)n([C@H](C)C2CCN(CC(F)(F)F)CC2)c2ccccc12 [Lira, Lirametostat, reference compound], the “reduction of BCL6 degrader dose requirement to achieve GI60” value (Su-DHL-4 cells; EZH2 inhibitor at 480 nM added to BCL6 degrader (compound 1), Su-DHL-4 cells, 60% growth inhibition) was “around 4.3 fold”.

CNC(=O)COc1cc2cc(Nc3nc(N4C[C@@H](C)C(F)(F)[C@@H](N)C4)c(C#N)cc3Cl)ccc2n(CC2COC2)c1=O [Compound 41, 2-((6-((6-((3S,5R)-3-Amino-4,4-difluoro-5-methylpiperidin-1-yl)-3-chloro-5-cyanopyridin-2-yl)amino)-1-(oxetan-3-ylmethyl)-2-oxo-1,2-dihydroquinolin-3-yl)oxy)-N-methylacetamide] showed a DC50 (BCL6) of 10 nM.

With CNC(=O)COc1cc2cc(Nc3nc(N4C[C@@H](C)[C@@H](O)[C@@H](C)C4)c(C#N)cc3Cl)ccc2n(C)c1=O [Compound 46, 2-((6-((3-Chloro-5-cyano-6-((3R,4s,5S)-4-hydroxy-3,5-dimethylpiperidin-1-yl)pyridin-2-yl)amino)-1-methyl-2-oxo-1,2-dihydroquinolin-3-yl)oxy)-N-methylacetamide] the DC50 (BCL6) was 6 nM.

In the case of C[C@@H]1CN(c2nc(Nc3ccc4c(c3)n(CCC3(O)CC3)c(=O)n4C)c(Cl)cc2C#N)C[C@H](N)C1(F)F [Compound 59, 2-((3S,5R)-3-Amino-4,4-difluoro-5-methylpiperidin-1-yl)-5-chloro-6-((3-(2-(1-hydroxycyclopropyl)ethyl)-1-methyl-2-oxo-2,3-dihydro-1H-benzo[d]imidazol-5-yl)amino)nicotinonitrile], the DC50 (BCL6) is reported as 48 nM.

With CNC(=O)COc1cc2cc(Nc3nc(N4C[C@@H](C)[C@@H](F)[C@@H](C)C4)c(C#N)cc3Cl)ccc2n(CCN)c1=O [Compound 66, 2-((1-(2-Aminoethyl)-6-((3-chloro-5-cyano-6-((3S,4S,5R)-4-fluoro-3,5-dimethylpiperidin-1-yl)pyridin-2-yl)amino)-2-oxo-1,2-dihydroquinolin-3-yl)oxy)-N-methylacetamide] the DC50 (BCL6) was 6 nM.

Work on CNC(=O)COc1cc2cc(Nc3nc(N4C[C@@H](C)[C@@H](F)[C@@H](C)C4)c(C#N)cc3Cl)ccc2n(CCN(C)C)c1=O [Compound 72, 2-((6-((3-Chloro-5-cyano-6-((3S,4S,5R)-4-fluoro-3,5-dimethylpiperidin-1-yl)pyridin-2-yl)amino)-1-(2-(dimethylamino)ethyl)-2-oxo-1,2-dihydroquinolin-3-yl)oxy)-N-methylacetamide] yielded a DC50 (BCL6) of 2 nM.

Compound CNC(=O)COc1cc2cc(Nc3ncc(C#N)c(N4C[C@H](CCO)C(F)(F)[C@H](C)C4)n3)ccc2n(C)c1=O [Compound 3, 2-((6-((5-Cyano-4-((3S,5R)-4,4-difluoro-3-(2-hydroxyethyl)-5-methylpiperidin-1-yl)pyrimidin-2-yl)amino)-1-methyl-2-oxo-1,2-dihydroquinolin-3-yl)oxy)-N-methylacetamide] has a DC50 (BCL6) of 3 nM.

C[C@H]1CN(c2nc(Nc3ccc4c(c3)n(CCC(C)(C)O)c(=O)n4C)c(Cl)cc2C#N)C[C@@H](O)[C@H]1F [Compound 51, 5-chloro-2-((3R,4S,5S)-4-fluoro-3-hydroxy-5-methylpiperidin-1-yl)-6-((3-(3-hydroxy-3-methylbutyl)-1-methyl-2-oxo-2,3-dihydro-1H-benzo[d]imidazol-5-yl)amino)nicotinonitrile] was tested, and the DC50 (BCL6) was > 400 nM.

For C[C@@H]1C[C@H](N)CN(c2nc(Nc3ccc4c(c3)c3c(c(=O)n4C)OCC(F)(F)[C@H](C4CC4)N3)c(Cl)cc2C#N)C1 [Compound 25, 2-((3S,5R)-3-Amino-5-methylpiperidin-1-yl)-5-chloro-6-(((S)-2-cyclopropyl-3,3-difluoro-7-methyl-6-oxo-1,2,3,4,6,7-hexahydro-[1,4]oxazepino[2,3-c]quinolin-10-yl)amino)nicotinonitrile], the DC50 (BCL6) was > 400 nM.

With C[C@@H]1CN(c2nc(Nc3ccc4c(c3)n(C[C@H]3CNC(=O)O3)c(=O)n4C)c(F)cc2C#N)C[C@H](C)[C@@H]1F [Compound 86, 5-Fluoro-2-((3S,4S,5R)-4-fluoro-3,5-dimethylpiperidin-1-yl)-6-((1-methyl-2-oxo-3-(((R)-2-oxooxazolidin-5-yl)methyl)-2,3-dihydro-1H-benzo[d]imidazol-5-yl)amino)nicotinonitrile] the DC50 (BCL6) was 83 nM.

With C[C@@H]1CN(c2nc(Nc3ccc4c(c3)n(CCC(C)(C)O)c(=O)n4CC3COC3)c(Cl)cc2C#N)C[C@H](N)C1(F)F [Compound 37, 2-((3S,5R)-3-Amino-4,4-difluoro-5-methylpiperidin-1-yl)-5-chloro-6-((3-(3-hydroxy-3-methylbutyl)-1-(oxetan-3-ylmethyl)-2-oxo-2,3-dihydro-1H-benzo[d]imidazol-5-yl)amino)nicotinonitrile] the DC50 (BCL6) was 62 nM.

CNC(=O)COc1cc2cc(Nc3nc(N4C[C@@H](C)[C@@H](O)[C@@H](C)C4)c(C#N)cc3Cl)ccc2n(CCN(C)C)c1=O [Compound 73, 2-((6-((3-chloro-5-cyano-6-((3S,4S,5R)-4-hydroxy-3,5-dimethylpiperidin-1-yl)pyridin-2-yl)amino)-1-(2-(dimethylamino)ethyl)-2-oxo-1,2-dihydroquinolin-3-yl)oxy)-N-methylacetamide] gave a DC50 (BCL6) of 9 nM.

C[C@@H]1CN(c2nc(Nc3ccc4c(c3)n(C[C@@H]3COC(=O)N3)c(=O)n4C)c(F)cc2C#N)C[C@H](C)[C@@H]1F [Compound 88, 5-Fluoro-2-((3S,4S,5R)-4-fluoro-3,5-dimethylpiperidin-1-yl)-6-((1-methyl-2-oxo-3-(((R)-2-oxooxazolidin-4-yl)methyl)-2,3-dihydro-1H-benzo[d]imidazol-5-yl)amino)nicotinonitrile] showed a DC50 (BCL6) of 80 nM.

C[C@H]1CN(c2nc(Nc3ccc4c(c3)n(CCC(C)(C)O)c(=O)n4CC3COC3)c(Cl)cc2C#N)C[C@@H](N)C1(F)F [Compound 38, 2-((3R,5S)-3-Amino-4,4-difluoro-5-methylpiperidin-1-yl)-5-chloro-6-((3-(3-hydroxy-3-methylbutyl)-1-(oxetan-3-ylmethyl)-2-oxo-2,3-dihydro-1H-benzo[d]imidazol-5-yl)amino)nicotinonitrile] was tested, and the DC50 (BCL6) was > 400 nM.

In the case of C[C@@H]1CN(c2nc(Nc3ccc4c(c3)n(CC[C@@H](C)O)c(=O)n4C)c(F)cc2C#N)C[C@H](C)[C@@H]1F [Compound 55, 5-Fluoro-2-((3S,4S,5R)-4-fluoro-3,5-dimethylpiperidin-1-yl)-6-((3-((R)-3-hydroxybutyl)-1-methyl-2-oxo-2,3-dihydro-1H-benzo[d]imidazol-5-yl)amino)nicotinonitrile], the DC50 (BCL6) is reported as 33 nM.

With CNC(=O)COc1cc2cc(Nc3nc(N4C[C@@H](C)C(F)(F)[C@@H](N)C4)c(C#N)cc3Cl)ccc2n(C)c1=O [Compound 43, 2-((6-((6-((3S,5R)-3-Amino-4,4-difluoro-5-methylpiperidin-1-yl)-3-chloro-5-cyanopyridin-2-yl)amino)-1-methyl-2-oxo-1,2-dihydroquinolin-3-yl)oxy)-N-methylacetamide] the DC50 (BCL6) was 10 nM.

CNC(=O)COc1cc2cc(Nc3nc(N4C[C@@H](C)C(F)(F)[C@@H](C)C4)c(C#N)cc3Cl)ccc2n(CC2COC2)c1=O [Compound 7, 2-((6-((3-chloro-5-cyano-6-((3R,5S)-4,4-difluoro-3,5-dimethylpiperidin-1-yl)pyridin-2-yl)amino)-1-(oxetan-3-ylmethyl)-2-oxo-1,2-dihydroquinolin-3-yl)oxy)-N-methylacetamide] gave a DC50 (BCL6) of 5 nM.

C[C@H](O)CCn1c(=O)n(C)c2ccc(Nc3nc(N4C[C@@H](C)[C@@H](F)[C@@H](C)C4)c(C#N)cc3F)cc21 [Compound 54, 5-Fluoro-2-((3S,4R,5R)-4-fluoro-3,5-dimethylpiperidin-1-yl)-6-((3-((S)-3-hydroxybutyl)-1-methyl-2-oxo-2,3-dihydro-1H-benzo[d]imidazol-5-yl)amino)nicotinonitrile] was tested, and the DC50 (BCL6) was 38 nM.

Compound CNC(=O)COc1cc2cc(Nc3nc(N4C[C@@H](C)C(F)(F)[C@@H](C)C4)c(C#N)cc3Cl)ccc2n(CCN(C)C)c1=O [Compound 11, 2-((6-((3-Chloro-5-cyano-6-((3R,5S)-4,4-difluoro-3,5-dimethylpiperidin-1-yl)pyridin-2-yl)amino)-1-(2-(dimethylamino)ethyl)-2-oxo-1,2-dihydroquinolin-3-yl)oxy)-N-methylacetamide] has a DC50 (BCL6) of 2 nM.
